Read-outs that look alike come from different tables or passages of the source.
Assays:
MOLM-13 cells = assay: Cell viability assay (CellTiter-Glo) in MOLM-13 cells, alone or with gilteritinib; assay type: cell-based; details: Homo sapiens, MOLM-13, 72 h, MOLM-13 cells, three days, CellTiter-Glo
MV4;11 cells = assay: Cell viability assay (CellTiter-Glo) in MV4;11 cells, alone or with gilteritinib; assay type: cell-based; details: Homo sapiens, MV4-11, 72 h, MV4;11 cells, three days, CellTiter-Glo, read-out: MV4
[1] = compound alone (without gilteritinib), read-out: MOLM-13 IC50
[2] = with gilteritinib 20 nM, read-out: MOLM-13 IC50 gilteritinib
[3] = compound alone (without gilteritinib), 11 IC50
[4] = with gilteritinib 10 nM, 11 IC50 gilteritinib

| IC50 (MOLM-13 cells; [1]) [nM] | IC50 (MOLM-13 cells; [2]) [nM] | IC50 (MV4;11 cells; [3]) [nM] | IC50 (MV4;11 cells; [4]) [nM] | Compound |
| --- | --- | --- | --- | --- |
| > 1000 | > 1000 | > 1000 | > 1000 | O=C1CCC(N2Cc3c(Nc4ccnc(N5CCC(N6CCC(n7cc(-c8cnc9ccccc9n8)cn7)CC6)C5)n4)cccc3C2=O)C(=O)N1 (centres unmarked) [GS-074, 3-(1-Oxo-4-((2-(3-(4-(4-(quinoxalin-2-yl)-1H-pyrazol-1-yl)piperidin-1-yl)pyrrolidin-1-yl)pyrimidin-4-yl)amino)isoindolin-2-yl)piperidine-2,6-dione] |
| 100 to 1000 | 10 to 100 | 100 to 1000 | 10 to 100 | O=C1CCC(N2Cc3c(Nc4ccnc(Nc5cccc(N6CCC(c7ccccc7)CC6)c5)n4)cccc3C2=O)C(=O)N1 (centres unmarked) [GS-075] |
| 10 to 100 | < 10 | 10 to 100 | < 10 | O=C1CCC(N2Cc3c(Nc4ccnc(Nc5cccc(N6CCN(c7ccccn7)CC6)c5)n4)cccc3C2=O)C(=O)N1 (centres unmarked) [GS-076, 3-(1-Oxo-4-((2-((3-(4-(pyridin-2-yl)piperazin-1-yl)phenyl)amino)pyrimidin-4-yl)amino)isoindolin-2-yl)piperidine-2,6-dione] |
| 10 to 100 | < 10 | < 10 | < 10 | O=C1CCC(N2Cc3c(Nc4ccnc(Nc5cccc(N6CCC(c7ccccn7)CC6)c5)n4)cccc3C2=O)C(=O)N1 (centres unmarked) [GS-077, 3-(1-Oxo-4-((2-((3-(4-(pyridin-2-yl)piperidin-1-yl)phenyl)amino)pyrimidin-4-yl)amino)isoindolin-2-yl)piperidine-2,6-dione] |
| 10 to 100 | < 10 | 10 to 100 | < 10 | O=C1CCC(N2Cc3c(Nc4ccnc(Nc5cccc(N6CCN(c7ncccn7)CC6)c5)n4)cccc3C2=O)C(=O)N1 (centres unmarked) [GS-078, 3-(1-Oxo-4-((2-((3-(4-(pyrimidin-2-yl)piperazin-1-yl)phenyl)amino)pyrimidin-4-yl)amino)isoindolin-2-yl)piperidine-2,6-dione] |
| > 1000 | 100 to 1000 | 100 to 1000 | 10 to 100 | O=C1CCC(N2Cc3c(Nc4ccnc(Nc5cccc(C(=O)N6CCC(n7cc(-c8cnc9ccccc9n8)cn7)CC6)c5)n4)cccc3C2=O)C(=O)N1 (centres unmarked) [GS-079, 3-(1-Oxo-4-((2-((3-(4-(4-(quinoxalin-2-yl)-1H-pyrazol-1-yl)piperidine-1-carbonyl)phenyl)amino)pyrimidin-4-yl)amino)isoindolin-2-yl)piperidine-2,6-dione] |
| > 1000 | 100 to 1000 | > 1000 | 100 to 1000 | O=C1CCC(N2Cc3c(Nc4ccnc(Nc5cccc(C(=O)N6CCN(c7ccccn7)CC6)c5)n4)cccc3C2=O)C(=O)N1 (centres unmarked) [GS-080, 3-(1-Oxo-4-((2-((3-(4-(pyridin-2-yl)piperazine-1-carbonyl)phenyl)amino)pyrimidin-4-yl)amino)isoindolin-2-yl)piperidine-2,6-dione] |
| > 1000 | > 1000 | > 1000 | > 1000 | O=C1CCC(N2Cc3c(Nc4ccnc(N5CCC(n6cc(-c7cnc8ccccc8n7)cn6)CC5)n4)cccc3C2=O)C(=O)N1 (centres unmarked) [GS-081, 3-(1-Oxo-4-((2-(4-(4-(quinoxalin-2-yl)-1H-pyrazol-1-yl)piperidin-1-yl)pyrimidin-4-yl)amino)isoindolin-2-yl)piperidine-2,6-dione] |
| > 1000 | 100 to 1000 | > 1000 | 100 to 1000 | O=C(CC1CC(N2CCC(n3cc(-c4cnc5ccccc5n4)cn3)CC2)C1)NCc1ccc2c(c1)CN(C1CCC(=O)NC1=O)C2=O (centres unmarked) [GS-082, N-((2-(2,6-Dioxopiperidin-3-yl)-1-oxoisoindolin-5-yl)methyl)-2-(3-(4-(4-(quinoxalin-2-yl)-1H-pyrazol-1-yl)piperidin-1-yl)cyclobutyl)acetamide] |
| 100 to 1000 | 10 to 100 | 10 to 100 | 10 to 100 | O=C(CC1CC1N1CCC(n2cc(-c3cnc4ccccc4n3)cn2)CC1)NCc1ccc2c(c1)CN(C1CCC(=O)NC1=O)C2=O (centres unmarked) [GS-083, N-((2-(2,6-Dioxopiperidin-3-yl)-1-oxoisoindolin-5-yl)methyl)-2-(2-(4-(4-(quinoxalin-2-yl)-1H-pyrazol-1-yl)piperidin-1-yl)cyclopropyl)acetamide] |
| > 1000 | > 1000 | > 1000 | > 1000 | O=C1CCC(N2Cc3c(Nc4ccnc(Nc5cccc(-n6cc(-c7cnc8ccccc8n7)cn6)c5)n4)cccc3C2=O)C(=O)N1 (centres unmarked) [GS-084, 3-(1-Oxo-4-((2-((3-(4-(quinoxalin-2-yl)-1H-pyrazol-1-yl)phenyl)amino)pyrimidin-4-yl)amino)isoindolin-2-yl)piperidine-2,6-dione] |
| > 1000 | > 1000 | > 1000 | > 1000 | O=C1CCC(N2Cc3c(Nc4ccnc(NCCC(=O)N5CCC(n6cc(-c7cnc8ccccc8n7)cn6)CC5)n4)cccc3C2=O)C(=O)N1 (centres unmarked) [GS-085, 3-(1-Oxo-4-((2-((3-oxo-3-(4-(4-(quinoxalin-2-yl)-1H-pyrazol-1-yl)piperidin-1-yl)propyl)amino)pyrimidin-4-yl)amino)isoindolin-2-yl)piperidine-2,6-dione] |
| > 1000 | > 1000 | > 1000 | 100 to 1000 | O=C(CC1CCCC(N2CCC(n3cc(-c4cnc5ccccc5n4)cn3)CC2)C1)NCc1ccc2c(c1)CN(C1CCC(=O)NC1=O)C2=O (centres unmarked) [GS-086, N-((2-(2,6-dioxopiperidin-3-yl)-1-oxoisoindolin-5-yl)methyl)-2-(3-(4-(4-(quinoxalin-2-yl)-1H-pyrazol-1-yl)piperidin-1-yl)cyclohexyl)acetamide] |
| < 10 | < 10 | < 10 | < 10 | O=C(CNc1cccc(N2CCC(n3cc(-c4cnc5ccccc5n4)cn3)CC2)c1)NCc1scc2c1CN(C1CCC(=O)NC1=O)C2=O (centres unmarked) [GS-087, N-((5-(2,6-dioxopiperidin-3-yl)-4-oxo-5,6-dihydro-4H-thieno[3,4-c]pyrrol-1-yl)methyl)-2-((3-(4-(4-(quinoxalin-2-yl)-1H-pyrazol-1-yl)piperidin-1-yl)phenyl)amino)acetamide] |
| > 1000 | > 1000 | > 1000 | > 1000 | O=C1CCC(N2Cc3c(Nc4ccnc(NCCCN5CCC(n6cc(-c7cnc8ccccc8n7)cn6)CC5)n4)cccc3C2=O)C(=O)N1 (centres unmarked) [GS-088, 3-(1-Oxo-4-((2-((3-(4-(4-(quinoxalin-2-yl)-1H-pyrazol-1-yl)piperidin-1-yl)propyl)amino)pyrimidin-4-yl)amino)isoindolin-2-yl)piperidine-2,6-dione] |
| > 1000 | > 1000 | > 1000 | > 1000 | O=C(CC1CCC(N2CCC(n3cc(-c4cnc5ccccc5n4)cn3)CC2)CC1)NCc1ccc2c(c1)CN(C1CCC(=O)NC1=O)C2=O (centres unmarked) [GS-089, N-((2-(2,6-dioxopiperidin-3-yl)-1-oxoisoindolin-5-yl)methyl)-2-(4-(4-(4-(quinoxalin-2-yl)-1H-pyrazol-1-yl)piperidin-1-yl)cyclohexyl)acetamide] |
| 10 to 100 | < 10 | 10 to 100 | < 10 | O=C1CCC(N2Cc3c(Nc4cccc(Nc5cccc(N6CCC(n7cc(-c8cnc9ccccc9n8)cn7)CC6)c5)n4)cccc3C2=O)C(=O)N1 (centres unmarked) [GS-090, 3-(1-Oxo-4-((6-((3-(4-(4-(quinoxalin-2-yl)-1H-pyrazol-1-yl)piperidin-1-yl)phenyl)amino)pyridin-2-yl)amino)isoindolin-2-yl)piperidine-2,6-dione] |
